Reference: patent publication US8754067B2, “22-haloacetoxy-homopregnacalciferol analogs and their uses” (Wisconsin Alumni Research Foundation, priority 2010, dated 2014)

How the values were obtained:
[1] = target: T1, full-length recombinant rat vitamin D receptor (Rattus norvegicus, UniProt P13053); assay: Vitamin D receptor binding, competition with [3H]-1,25(OH)2D3; conditions: FIG. 1
T1 construct: Full-length recombinant rat receptor was expressed in E. coli; histidine tag (C); made in house; host or cells: E. coli BL21 (DE3) Codon Plus RIL
T1 sequence (P13053 1-423): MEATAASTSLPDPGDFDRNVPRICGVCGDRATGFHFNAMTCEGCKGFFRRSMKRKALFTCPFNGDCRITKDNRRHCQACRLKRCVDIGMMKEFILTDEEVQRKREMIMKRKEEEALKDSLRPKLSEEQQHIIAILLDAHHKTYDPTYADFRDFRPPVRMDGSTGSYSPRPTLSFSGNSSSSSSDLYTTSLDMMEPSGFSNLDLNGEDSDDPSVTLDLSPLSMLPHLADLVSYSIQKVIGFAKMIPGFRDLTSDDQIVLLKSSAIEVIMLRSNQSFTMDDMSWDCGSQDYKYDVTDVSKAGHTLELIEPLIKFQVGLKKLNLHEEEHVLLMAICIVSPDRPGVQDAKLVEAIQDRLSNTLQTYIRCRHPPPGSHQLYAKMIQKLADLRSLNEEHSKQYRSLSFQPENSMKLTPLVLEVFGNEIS
Procedure: Full-length recombinant rat receptor was expressed in E. coli BL21 (DE3) Codon Plus RIL cells and purified to homogeneity using two different column chromatography systems. The first system was a nickel affinity resin that utilizes the C-terminal histidine tag on this protein. The protein that was eluted from this resin was further purified using ion exchange chromatography (S-Sepharose Fast Flow). Aliquots of the purified protein were quick frozen in liquid nitrogen and stored at −80° C. until use. For use in binding assays, the protein was diluted in TEDK50 (50 mM Tris, 1.5 mM EDTA, pH7.4, 5 mM DTT, 150 mM KCl) with 0.1% Chaps detergent. The receptor protein and ligand concentration was optimized such that no more than 20% of the added radiolabeled ligand was bound to the receptor.
Radiolabeled and unlabeled ligands were added to 100 mcl of the diluted protein at a final ethanol concentration of ≦10%, mixed and incubated overnight on ice to reach binding equilibrium. The following day, 100 mcl of hydroxylapatite slurry (50%) was added to each tube and mixed at 10-minute intervals for 30 minutes. […] After the final wash, the pellets were transferred to scintillation vials containing 4 ml of Biosafe II scintillation cocktail, mixed and placed in a scintillation counter. Total binding was determined from the tubes containing only radiolabeled ligand.

[2] = system: H-82 lung carcinoma cells; assay: Cell viability, H-82 lung carcinoma cells; assay type: cell-based; conditions: four days growth, methylene blue; FIG. 5A/5B
Procedure: (§1) Various cell lines were plated, administered a range of drug concentrations one time, allowed to grow for four days and then the number of cells present counted and expressed as a percentage of those present in the vehicle control plates. […] The number of live cells was expressed as a percentage of the total present. Each assay was done in duplicate.

[3] = system: bone calcium mobilization; assay: Bone calcium mobilization (serum calcium) in vitamin D-deficient rats; assay type: in vivo, rat; conditions: vitamin D-deficient rats on 0.02% Ca diet, FIG. 7
Procedure: (§2) Male, weanling Sprague-Dawley rats were placed on Diet 11 (Suda et al, J. Nutr. 100:1049, 1970) (0.47% Ca)+AEK oil for one week followed by Diet 11 (0.02% Ca)+AEK oil for 3 weeks. The rats were then switched to the same diet containing 0.47% Ca for one week followed by two weeks on the same diet containing 0.02% Ca. Dose administration began during the last week on 0.02% calcium diet. Four consecutive intraperitoneal (ip) doses were given approximately 24 hours apart. Twenty-four hours after the last dose, blood was collected from the severed neck and the concentration of serum calcium determined by atomic absorption spectrometry as a measure of bone calcium mobilization. The first 10 cm of the intestine was also collected for intestinal calcium transport analysis using the everted gut sac method.

HL-60 leukemia cells [4] = assay: Cell viability, HL-60 leukemia cells; assay type: cell-based, human; conditions: four days growth, methylene blue; FIG. 4A/4B
Procedure: as §1

[5] = system: intestinal calcium transport; assay: Intestinal calcium transport (everted gut sac) in vitamin D-deficient rats; assay type: in vivo, rat; conditions: 4 consecutive ip doses, FIG. 8
Procedure: as §2

HL-60 leukemia cells [6] = assay: HL-60 differentiation (nitro blue tetrazolium reduction); assay type: cell-based, human; conditions: FIG. 2
Procedure: The study drugs were dissolved in ethanol and the concentrations determined using UV spectrophotometry. Serial dilutions were prepared so that a range of drug concentrations could be tested without changing the final concentration of ethanol (≦0.2%) present in the cell cultures.
Human promyelocytic leukemia (HL60) cells were grown in RPMI-1640 medium containing 10% fetal bovine serum. The cells were incubated at 37° C. in the presence of 5% CO2.
HL60 cells were plated at 1.2×10^5 cells/ml. Eighteen hours after plating, cells in duplicate were treated with drug. Four days later, the cells were harvested and a nitro blue tetrazolium reduction assay was performed (Collins et al., 1979; J. Exp. Med. 149:969-974). The percentage of differentiated cells was determined by counting a total of 200 cells and recording the number that contained intracellular black-blue formazan deposits. Verification of differentiation to monocytic cells was determined by measuring phagocytic activity (data not shown).

[7] = Body weight of dosed animals; assay type: in vivo, rat; conditions: various doses, throughout the test period; FIG. 9
Procedure: as §2

DU-145 prostate cells = assay: Cell viability, DU-145 prostate cells; assay type: cell-based; conditions: four days growth, methylene blue; FIG. 6A/6B
Procedure: as §1

[8] = system: 24-hydroxylase (24 Ohase) gene promoter in ROS 17/2.8 (bone) cells; assay: In vitro transcription assay (luciferase reporter); assay type: cell-based; conditions: ROS 17/2.8 cells, 16 hours after dosing; FIG. 3; read-out: EC50, transcriptional activity in bone cells
Procedure: Transcription activity was measured in ROS 17/2.8 (bone) cells that were stably transfected with a 24-hydroxylase (24 Ohase) gene promoter upstream of a luciferase reporter gene (Arbour et al., 1998). Cells were given a range of doses. Sixteen hours after dosing the cells were harvested and luciferase activities were measured using a luminometer. RLU=relative luciferase units.

Row | SMILES | Ki ([1]; full-length recombinant rat VDR) [nM] | times less active than 1α,25-dihydroxyvitamin D3 in VDR binding ([1]; relative to natural hormone) [times] | cell viability of H-82 lung carcinoma cells [2] | bone calcium mobilization (serum calcium) ([3]; 105,300 pmol/day ip for 4 consecutive days) | cell viability of HL-60 leukemia cells (HL-60 leukemia cells [4]) | intestinal calcium transport activity ([5]; 35,100 pmol/rat) | HL-60 cell differentiation activity (HL-60 leukemia cells [6]) | change in body weight [7] | cell viability of DU-145 prostate cells (DU-145 prostate cells) | EC50 [8] [nM] | bone calcium mobilization (serum calcium) ([3]; 780 pmol, 4 consecutive ip doses) | intestinal calcium transport activity ([5]; 780 pmol) | EC50 (HL-60 leukemia cells [6]; four days after treatment, read-out: EC50, HL-60 cell differentiation) [nM]
1 | C=C1CC[C@H](O)C/C1=C/C=C1\CCC[C@]2(C)[C@@H]([C@H](C)COC(=O)CBr)CC[C@@H]12 [AB-47, 22-bromoacetoxy-homopregnacalciferol] | 3 | 100 | kills H-82 lung carcinoma cells | little or no mobilization of bone calcium | kills HL-60 leukemia cells | little to no activity | does not promote HL60 differentiation | substantially maintain their body weight | neither AB-47 nor 1,25(OH)2D3 have any significant effect | > 1000 | – | – | –
2 | C=C1/C(=C\C=C2/CCC[C@]3(C)[C@@H]([C@H](C)CCCC(C)(C)O)CC[C@@H]23)C[C@@H](O)C[C@@H]1O [1,25(OH)2D3, 1α,25-dihydroxyvitamin D3, reference compound] | – | – | does not have any significant effect | – | does not have any significant effect | – | – | – | neither AB-47 nor 1,25(OH)2D3 have any significant effect | – | significant increases in serum calcium | significant increase in activity | 2
